Experiments:
Format in all cases: biochemical
Lyn enzyme = molecular target: T1, Lyn enzyme (Homo sapiens, UniProt P07948); experiment: Lyn enzyme activity, IMAP fluorescence polarization assay; details: 60 min pre-incubation, 2 μM ATP (Km)
T1 construct: purchased Millipore 14-510

Src enzyme = molecular target: T2, Src enzyme (Homo sapiens, UniProt P12931); experiment: Src enzyme activity, IMAP fluorescence polarization assay; details: 60 min pre-incubation, 4 μM ATP (Km)
T2 construct: purchased Millipore 14-326
Summary of the method: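 Src at 0.2 U/mL final, pre-incubated 60 min at RT with compound (10 μM to 0.316 nM final, 1% DMSO) in pH 7.2 Tris/Mg/Mn buffer. Reaction with 100 nM fluorescein-p34cdc2 peptide and 4 μM ATP (Km) ran 2 h at RT, then IMAP binding and FP at 535 nm. EC50 from curve fit of % control.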

Lck enzyme = molecular target: T3, Lck enzyme (Homo sapiens, UniProt P06239); experiment: Lck enzyme activity, IMAP fluorescence polarization assay; details: 60 min pre-incubation, 6 μM ATP (Km)
T3 construct: purchased Millipore 14-442

Measured: EC50

T1 sequence (P07948 whole entry): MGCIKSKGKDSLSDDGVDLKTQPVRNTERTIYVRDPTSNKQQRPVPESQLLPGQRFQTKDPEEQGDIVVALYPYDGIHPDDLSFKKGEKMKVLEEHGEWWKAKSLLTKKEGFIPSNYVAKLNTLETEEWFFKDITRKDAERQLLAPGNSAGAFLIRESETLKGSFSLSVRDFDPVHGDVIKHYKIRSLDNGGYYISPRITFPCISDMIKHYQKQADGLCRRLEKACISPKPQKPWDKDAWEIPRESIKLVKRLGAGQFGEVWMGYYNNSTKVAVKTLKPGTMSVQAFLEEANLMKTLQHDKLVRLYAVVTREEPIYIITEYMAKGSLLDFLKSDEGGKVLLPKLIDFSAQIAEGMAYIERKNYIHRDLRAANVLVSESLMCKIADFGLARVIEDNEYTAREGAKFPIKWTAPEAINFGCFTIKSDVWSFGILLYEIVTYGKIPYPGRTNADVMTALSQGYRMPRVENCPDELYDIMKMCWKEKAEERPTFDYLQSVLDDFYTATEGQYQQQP
T3 sequence (P06239 whole entry): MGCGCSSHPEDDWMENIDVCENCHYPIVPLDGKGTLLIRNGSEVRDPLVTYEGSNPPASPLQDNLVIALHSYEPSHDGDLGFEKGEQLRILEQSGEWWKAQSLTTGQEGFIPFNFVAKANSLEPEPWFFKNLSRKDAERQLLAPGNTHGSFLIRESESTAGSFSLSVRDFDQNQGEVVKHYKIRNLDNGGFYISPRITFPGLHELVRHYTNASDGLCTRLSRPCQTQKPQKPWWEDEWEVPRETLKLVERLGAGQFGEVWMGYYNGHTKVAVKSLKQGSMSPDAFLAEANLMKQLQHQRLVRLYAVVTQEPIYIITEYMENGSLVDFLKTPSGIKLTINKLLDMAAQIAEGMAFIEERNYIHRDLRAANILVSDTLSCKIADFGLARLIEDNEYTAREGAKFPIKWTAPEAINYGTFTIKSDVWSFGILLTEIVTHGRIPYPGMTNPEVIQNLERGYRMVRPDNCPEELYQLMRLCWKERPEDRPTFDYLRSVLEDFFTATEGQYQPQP
T2 sequence (P12931 whole entry): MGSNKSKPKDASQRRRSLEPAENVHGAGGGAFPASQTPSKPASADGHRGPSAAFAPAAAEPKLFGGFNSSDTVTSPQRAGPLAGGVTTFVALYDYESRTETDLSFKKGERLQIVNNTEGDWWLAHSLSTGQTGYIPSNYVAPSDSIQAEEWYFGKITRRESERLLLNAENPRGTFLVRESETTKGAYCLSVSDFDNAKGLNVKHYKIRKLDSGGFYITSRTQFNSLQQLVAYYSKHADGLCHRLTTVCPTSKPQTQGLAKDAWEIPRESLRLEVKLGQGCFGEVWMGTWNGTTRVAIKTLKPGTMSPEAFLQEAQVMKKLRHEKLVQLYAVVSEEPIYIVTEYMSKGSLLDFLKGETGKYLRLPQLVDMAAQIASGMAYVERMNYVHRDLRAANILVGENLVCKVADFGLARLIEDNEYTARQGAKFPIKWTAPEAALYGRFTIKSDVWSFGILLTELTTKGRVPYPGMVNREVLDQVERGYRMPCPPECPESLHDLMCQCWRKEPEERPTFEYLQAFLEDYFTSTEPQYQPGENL

CC#CC(=O)N1CCCC[C@H]1c1nc(-c2ccc(C(=O)Nc3cc(CCC)ccn3)cc2)c2c(C)nccn12 [Example 22, (S)-4-(3-(1-but-2-ynoylpiperidin-2-yl)-8-methylimidazo[1,5-a]pyrazin-1-yl)-N-(4-propylpyridin-2-yl)benzamide]
≥ 1000 nM: all assays above

C=CC(=O)N1CCCC[C@H]1c1nc(-c2ccc(C(=O)Nc3cc(C(F)(F)F)ccn3)cc2)c2c(C)nccn12 [Example 27, (S)-4-(3-(1-acryloylpiperidin-2-yl)-8-methylimidazo[1,5-a]pyrazin-1-yl)-N-(4-(trifluoromethyl)pyridin-2-yl)benzamide]
≥ 1000 nM: all assays above

C=CC(=O)N1CCCC[C@H]1c1nc(-c2ccc(C(=O)Nc3cc(CCC)ccn3)cc2)c2c(C)nccn12 [Example 2, (S)-4-(3-(1-Acryloylpiperidin-2-yl)-8-methylimidazo[1,5-a]pyrazin-1-yl)-N-(4-propylpyridin-2-yl)benzamide]
≥ 1000 nM: all assays above

CC#CC(=O)N(C)[C@@H](C)c1nc(-c2ccc(C(=O)Nc3cc(CCC)ccn3)cc2)c2c(C)nccn12 [Example 24, (S)-4-(8-methyl-3-(1-(N-methylbut-2-ynamido)ethyl)imidazo[1,5-a]pyrazin-1-yl)-N-(4-propylpyridin-2-yl)benzamide]
≥ 1000 nM: all assays above

COC/C=C/C(=O)N[C@@H](C)c1nc(-c2ccc(C(=O)Nc3cc(C(F)(F)F)ccn3)cc2)c2c(C)nccn12 [Example 6, (S,E)-4-(3-(1-(4-Methoxybut-2-enamido)ethyl)-8-methylimidazo[1,5-a]pyrazin-1-yl)-N-(4-(trifluoromethyl)pyridin-2-yl)benzamide]
≥ 1000 nM: all assays above

CCCc1ccnc(NC(=O)c2ccc(-c3nc([C@@H]4CCCCN4C(=O)/C=C/CN4CCCC4)n4ccnc(C)c34)cc2)c1 [Example 35, (S,E)-4-(8-methyl-3-(1-(4-(pyrrolidin-1-yl)but-2-enoyl)piperidin-2-yl)imidazo[1,5-a]pyrazin-1-yl)-N-(4-propylpyridin-2-yl)benzamide]
≥ 1000 nM: all assays above

C=CC(=O)N1CCC[C@H]1c1nc(-c2ccc(C(=O)Nc3ccccn3)cc2)c2c(C)nccn12 [Example 19, (S)-4-(3-(1-acryloylpyrrolidin-2-yl)-8-methylimidazo[1,5-a]pyrazin-1-yl)-N-(pyridin-2-yl)benzamide]
≥ 1000 nM: all assays above

C=CC(=O)N1CCC[C@H]1c1nc(-c2ccc(C(=O)Nc3cc(CCC)ccn3)cc2)c2c(C)nccn12 [Example 9, (S)-4-(3-(1-Acryloylpyrrolidin-2-yl)-8-methylimidazo[1,5-a]pyrazin-1-yl)-N-(4-propylpyridin-2-yl)benzamide]
≥ 1000 nM: all assays above

CC#CC(=O)N1CCCC[C@H]1c1nc(-c2ccc(C(=O)Nc3cc(C(F)(F)F)ccn3)cc2)c2c(C)nccn12 [Example 29, (S)-4-(3-(1-but-2-ynoylpiperidin-2-yl)-8-methylimidazo[1,5-a]pyrazin-1-yl)-N-(4-(trifluoromethyl)pyridin-2-yl)benzamide]
≥ 1000 nM: all assays above

— patent publication US20140155406A1, “4-IMIDAZOPYRIDAZIN-1-YL-BENZAMIDES AND 4-IMIDAZOTRIAZIN-1-YL-BENZAMIDES BTK INHIBITORS” (priority 2011, published 2014)
